Our source for the Ki values is patent US8053553B2, “Targeting host proteinases as a therapeutic strategy against viral and bacterial pathogens” (Socpra Sciences Sante Et Humaines, priority 2007, dated 2011).

Non-standard residues stand in square brackets, D forms with d. Residues, ends and D or L forms follow the SMILES beside them. Sar = CNCC(=O)O

The target of this test is T1, furin (Homo sapiens, UniProt P09958).
T1 construct: made in house; host or cells: Drosophila S2 cells (Invitrogen expression system)
Kind of test: biochemical. To be noted: furin, Pyr-RTKR-AMC substrate; alanine scanning mutagenesis of the H5 furin cleavage sequence (Table 2); read-out: Ki.

T1 sequence (P09958 108-794 limits assumed): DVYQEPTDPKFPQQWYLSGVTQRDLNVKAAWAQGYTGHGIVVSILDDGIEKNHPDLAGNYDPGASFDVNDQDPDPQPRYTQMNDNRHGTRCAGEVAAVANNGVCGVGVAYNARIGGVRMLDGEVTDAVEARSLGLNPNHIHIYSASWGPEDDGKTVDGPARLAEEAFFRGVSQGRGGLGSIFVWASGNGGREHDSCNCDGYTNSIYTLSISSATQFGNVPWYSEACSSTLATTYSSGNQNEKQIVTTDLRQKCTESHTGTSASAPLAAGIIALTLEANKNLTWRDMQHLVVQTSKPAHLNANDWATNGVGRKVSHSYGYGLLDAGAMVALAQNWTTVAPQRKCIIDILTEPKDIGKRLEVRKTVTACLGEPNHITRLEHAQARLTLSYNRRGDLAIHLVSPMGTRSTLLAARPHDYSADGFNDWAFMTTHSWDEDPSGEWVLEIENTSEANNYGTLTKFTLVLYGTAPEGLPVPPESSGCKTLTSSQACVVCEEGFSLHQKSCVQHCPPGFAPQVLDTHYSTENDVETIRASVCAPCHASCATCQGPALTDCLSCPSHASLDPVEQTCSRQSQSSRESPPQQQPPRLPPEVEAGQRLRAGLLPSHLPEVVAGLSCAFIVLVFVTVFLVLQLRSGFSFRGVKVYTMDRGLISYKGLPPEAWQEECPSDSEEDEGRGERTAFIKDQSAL

Turning to `CC(C)[C@H](NC(=O)[C@H](CCCNC(=N)N)NC(=O)[C@H](CCCCN)NC(=O)[C@H](CCCCN)NC(=O)[C@H](C)NC(=O)[C@H](C)NC(=O)[C@H](CCCNC(=N)N)NC(=O)[C@H](CCC(=O)O)NC(=O)[C@H](CCCNC(=N)N)NC(=O)[C@@H]1CCCN1C(=O)[C@@H](N)[C@@H](C)O)C(N)=O` (H-TPRERAAKKRV-NH2), the inhibition constant Ki is over 100 nM. On to `C[C@H](NC(=O)[C@H](C)NC(=O)[C@H](CCCNC(=N)N)NC(=O)[C@H](CCC(=O)O)NC(=O)[C@H](CCCNC(=N)N)NC(=O)[C@@H]1CCCN1C(=O)[C@@H](N)[C@@H](C)O)C(=O)N[C@@H](CCCCN)C(=O)N[C@@H](CCCCN)C(=O)N[C@@H](CCCNC(=N)N)C(=O)N(C)CC(N)=O` (H-TPRERAAKKR[Sar]-NH2), for which the inhibition constant (Ki) is over 100 nM.

`C[C@H](NC(=O)[C@H](CCCNC(=N)N)NC(=O)[C@H](CCC(=O)O)NC(=O)[C@H](CCCNC(=N)N)NC(=O)[C@@H]1CCCN1C(=O)[C@@H](N)[C@@H](C)O)C(=O)N[C@@H](CCCNC(=N)N)C(=O)N[C@@H](CCCCN)C(=O)N[C@@H](CCCCN)C(=O)N[C@@H](CCCNC(=N)N)C(N)=O` (H-TPRERARKKR-NH2): the Ki is over 100 nM. Regarding `CC(C)[C@H](NC(=O)[C@H](CCCNC(=N)N)NC(=O)[C@H](CCCCN)NC(=O)[C@H](CCCCN)NC(=O)[C@H](CCCNC(=N)N)NC(=O)[C@H](C)NC(=O)[C@H](CCCNC(=N)N)NC(=O)[C@H](CCC(=O)O)NC(=O)[C@H](CCCNC(=N)N)NC(=O)[C@@H]1CCCN1C(=O)[C@@H](N)[C@@H](C)O)C(N)=O` (H-TPRERARKKRV-NH2), the Ki was over 100 nM. With `C[C@H](NC(=O)[C@H](CCCNC(=N)N)NC(=O)[C@H](CCC(=O)O)NC(=O)[C@H](CCCNC(=N)N)NC(=O)[C@@H]1CCCN1C(=O)[C@@H](N)[C@@H](C)O)C(=O)N[C@@H](CCCNC(=N)N)C(=O)N[C@@H](CCCCN)C(=O)N[C@@H](CCCCN)C(=O)N[C@@H](CCCNC(=N)N)C(=O)N(C)CC(N)=O` (H-TPRERARKKR[Sar]-NH2), the Ki was over 100 nM. Turning to `C[C@H](NC(=O)[C@H](C)NC(=O)[C@H](CCCNC(=N)N)NC(=O)[C@H](CCCNC(=N)N)NC(=O)[C@H](CCC(=O)O)NC(=O)[C@H](CCCNC(=N)N)NC(=O)[C@@H]1CCCN1C(=O)[C@@H](N)[C@@H](C)O)C(=O)N[C@@H](CCCCN)C(=O)N[C@@H](CCCNC(=N)N)C(N)=O` (H-TPRERRAAKR-NH2), the inhibition constant (Ki) was over 100 nM. On to `C[C@H](NC(=O)[C@H](C)NC(=O)[C@H](CCCNC(=N)N)NC(=O)[C@H](CCCNC(=N)N)NC(=O)[C@H](CCC(=O)O)NC(=O)[C@H](CCCNC(=N)N)NC(=O)[C@@H]1CCCN1C(=O)[C@@H](N)[C@@H](C)O)C(=O)N[C@@H](CCCCN)C(=O)N[C@@H](CCCNC(=N)N)C(=O)NCC(N)=O` (H-TPRERRAAKRG-NH2), for which the inhibition constant (Ki) is over 100 nM. Turning to `CC(C)[C@H](NC(=O)[C@H](CCCNC(=N)N)NC(=O)[C@H](CCCCN)NC(=O)[C@H](C)NC(=O)[C@H](C)NC(=O)[C@H](CCCNC(=N)N)NC(=O)[C@H](CCCNC(=N)N)NC(=O)[C@H](CCC(=O)O)NC(=O)[C@H](CCCNC(=N)N)NC(=O)[C@@H]1CCCN1C(=O)[C@@H](N)[C@@H](C)O)C(N)=O` (H-TPRERRAAKRV-NH2), the inhibitory constant (Ki) was over 100 nM. Regarding `C[C@H](NC(=O)[C@H](C)NC(=O)[C@H](CCCNC(=N)N)NC(=O)[C@H](CCCNC(=N)N)NC(=O)[C@H](CCC(=O)O)NC(=O)[C@H](CCCNC(=N)N)NC(=O)[C@@H]1CCCN1C(=O)[C@@H](N)[C@@H](C)O)C(=O)N[C@@H](CCCCN)C(=O)N[C@@H](CCCNC(=N)N)C(=O)N(C)CC(N)=O` (H-TPRERRAAKR[Sar]-NH2), the inhibition constant (Ki) is over 100 nM. In the case of `C[C@H](NC(=O)[C@H](CCCNC(=N)N)NC(=O)[C@H](CCCNC(=N)N)NC(=O)[C@H](CCC(=O)O)NC(=O)[C@H](CCCNC(=N)N)NC(=O)[C@@H]1CCCN1C(=O)[C@@H](N)[C@@H](C)O)C(=O)N[C@@H](CCCCN)C(=O)N[C@@H](CCCCN)C(=O)N[C@@H](CCCNC(=N)N)C(N)=O` (H-TPRERRAKKR-NH2) it was over 100 nM; in that of `CC(C)[C@H](NC(=O)[C@H](CCCNC(=N)N)NC(=O)[C@H](CCCCN)NC(=O)[C@H](CCCCN)NC(=O)[C@H](C)NC(=O)[C@H](CCCNC(=N)N)NC(=O)[C@H](CCCNC(=N)N)NC(=O)[C@H](CCC(=O)O)NC(=O)[C@H](CCCNC(=N)N)NC(=O)[C@@H]1CCCN1C(=O)[C@@H](N)[C@@H](C)O)C(N)=O` (H-TPRERRAKKRV-NH2), over 100 nM. For the compound `C[C@H](NC(=O)[C@H](CCCNC(=N)N)NC(=O)[C@H](CCCNC(=N)N)NC(=O)[C@H](CCC(=O)O)NC(=O)[C@H](CCCNC(=N)N)NC(=O)[C@@H]1CCCN1C(=O)[C@@H](N)[C@@H](C)O)C(=O)N[C@@H](CCCCN)C(=O)N[C@@H](CCCCN)C(=O)N[C@@H](CCCNC(=N)N)C(=O)N(C)CC(N)=O` (H-TPRERRAKKR[Sar]-NH2), the inhibition constant (Ki) is over 100 nM. In the case of `CC(C)[C@H](NC(=O)[C@H](CCCNC(=N)N)NC(=O)[C@H](C)NC(=O)[C@H](C)NC(=O)[C@H](CCCNC(=N)N)NC(=O)[C@H](CCCNC(=N)N)NC(=O)[C@H](CCCNC(=N)N)NC(=O)[C@H](CCC(=O)O)NC(=O)[C@H](CCCNC(=N)N)NC(=O)[C@@H]1CCCN1C(=O)[C@@H](N)[C@@H](C)O)C(N)=O` (H-TPRERRRAARV-NH2), the inhibitory constant (Ki) is over 100 nM.

In the case of `C[C@H](NC(=O)[C@H](CCCNC(=N)N)NC(=O)[C@H](CCCNC(=N)N)NC(=O)[C@H](CCCNC(=N)N)NC(=O)[C@H](CCC(=O)O)NC(=O)[C@H](CCCNC(=N)N)NC(=O)[C@@H]1CCCN1C(=O)[C@@H](N)[C@@H](C)O)C(=O)N[C@@H](CCCCN)C(=O)N[C@@H](CCCNC(=N)N)C(N)=O` (H-TPRERRRAKR-NH2), the Ki was over 100 nM.

For the compound `CC(C)[C@H](NC(=O)[C@H](CCCNC(=N)N)NC(=O)[C@H](CCCCN)NC(=O)[C@H](C)NC(=O)[C@H](CCCNC(=N)N)NC(=O)[C@H](CCCNC(=N)N)NC(=O)[C@H](CCCNC(=N)N)NC(=O)[C@H](CCC(=O)O)NC(=O)[C@H](CCCNC(=N)N)NC(=O)[C@@H]1CCCN1C(=O)[C@@H](N)[C@@H](C)O)C(N)=O` (H-TPRERRRAKRV-NH2), the Ki was over 100 nM.

Take `C[C@H](NC(=O)[C@H](CCCNC(=N)N)NC(=O)[C@H](CCCNC(=N)N)NC(=O)[C@H](CCCNC(=N)N)NC(=O)[C@H](CCC(=O)O)NC(=O)[C@H](CCCNC(=N)N)NC(=O)[C@@H]1CCCN1C(=O)[C@@H](N)[C@@H](C)O)C(=O)N[C@@H](CCCCN)C(=O)N[C@@H](CCCNC(=N)N)C(=O)N(C)CC(N)=O` (H-TPRERRRAKR[Sar]-NH2): the Ki was over 100 nM. As for `C[C@H](NC(=O)[C@H](C)NC(=O)[C@H](CCCCN)NC(=O)[C@H](CCCNC(=N)N)NC(=O)[C@H](CCCNC(=N)N)NC(=O)[C@H](CCCNC(=N)N)NC(=O)[C@H](CCC(=O)O)NC(=O)[C@H](CCCNC(=N)N)NC(=O)[C@@H]1CCCN1C(=O)[C@@H](N)[C@@H](C)O)C(N)=O` (H-TPRERRRKAA-NH2), the Ki was over 100 nM. With `C[C@H](NC(=O)[C@H](C)NC(=O)[C@H](CCCCN)NC(=O)[C@H](CCCNC(=N)N)NC(=O)[C@H](CCCNC(=N)N)NC(=O)[C@H](CCCNC(=N)N)NC(=O)[C@H](CCC(=O)O)NC(=O)[C@H](CCCNC(=N)N)NC(=O)[C@@H]1CCCN1C(=O)[C@@H](N)[C@@H](C)O)C(=O)NCC(N)=O` (H-TPRERRRKAAG-NH2), the Ki was over 100 nM. For the compound `CC(C)[C@H](NC(=O)[C@H](C)NC(=O)[C@H](C)NC(=O)[C@H](CCCCN)NC(=O)[C@H](CCCNC(=N)N)NC(=O)[C@H](CCCNC(=N)N)NC(=O)[C@H](CCCNC(=N)N)NC(=O)[C@H](CCC(=O)O)NC(=O)[C@H](CCCNC(=N)N)NC(=O)[C@@H]1CCCN1C(=O)[C@@H](N)[C@@H](C)O)C(N)=O` (H-TPRERRRKAAV-NH2), the Ki was over 100 nM.

`C[C@H](NC(=O)[C@H](CCCCN)NC(=O)[C@H](CCCNC(=N)N)NC(=O)[C@H](CCCNC(=N)N)NC(=O)[C@H](CCCNC(=N)N)NC(=O)[C@H](CCC(=O)O)NC(=O)[C@H](CCCNC(=N)N)NC(=O)[C@@H]1CCCN1C(=O)[C@@H](N)[C@@H](C)O)C(=O)N[C@@H](C)C(=O)N(C)CC(N)=O` (H-TPRERRRKAA[Sar]-NH2): the Ki is over 100 nM.

`C[C@H](NC(=O)[C@H](CCCCN)NC(=O)[C@H](CCCNC(=N)N)NC(=O)[C@H](CCCNC(=N)N)NC(=O)[C@H](CCCNC(=N)N)NC(=O)[C@H](CCC(=O)O)NC(=O)[C@H](CCCNC(=N)N)NC(=O)[C@@H]1CCCN1C(=O)[C@@H](N)[C@@H](C)O)C(=O)N[C@@H](CCCNC(=N)N)C(N)=O` (H-TPRERRRKAR-NH2): the Ki is over 100 nM. Regarding `CC(C)[C@H](NC(=O)[C@H](CCCNC(=N)N)NC(=O)[C@H](C)NC(=O)[C@H](CCCCN)NC(=O)[C@H](CCCNC(=N)N)NC(=O)[C@H](CCCNC(=N)N)NC(=O)[C@H](CCCNC(=N)N)NC(=O)[C@H](CCC(=O)O)NC(=O)[C@H](CCCNC(=N)N)NC(=O)[C@@H]1CCCN1C(=O)[C@@H](N)[C@@H](C)O)C(N)=O` (H-TPRERRRKARV-NH2), the Ki was over 100 nM.

As to `C[C@H](NC(=O)[C@H](CCCCN)NC(=O)[C@H](CCCNC(=N)N)NC(=O)[C@H](CCCNC(=N)N)NC(=O)[C@H](CCCNC(=N)N)NC(=O)[C@H](CCC(=O)O)NC(=O)[C@H](CCCNC(=N)N)NC(=O)[C@@H]1CCCN1C(=O)[C@@H](N)[C@@H](C)O)C(=O)N[C@@H](CCCNC(=N)N)C(=O)N(C)CC(N)=O` (H-TPRERRRKAR[Sar]-NH2), the Ki is over 100 nM. In the case of `C[C@H](NC(=O)[C@H](CCCCN)NC(=O)[C@H](CCCCN)NC(=O)[C@H](CCCNC(=N)N)NC(=O)[C@H](CCCNC(=N)N)NC(=O)[C@H](CCCNC(=N)N)NC(=O)[C@H](CCC(=O)O)NC(=O)[C@H](CCCNC(=N)N)NC(=O)[C@@H]1CCCN1C(=O)[C@@H](N)[C@@H](C)O)C(N)=O` (H-TPRERRRKKA-NH2), the inhibitory constant (Ki) was over 100 nM.

Take `CC(C)[C@H](NC(=O)[C@H](C)NC(=O)[C@H](CCCCN)NC(=O)[C@H](CCCCN)NC(=O)[C@H](CCCNC(=N)N)NC(=O)[C@H](CCCNC(=N)N)NC(=O)[C@H](CCCNC(=N)N)NC(=O)[C@H](CCC(=O)O)NC(=O)[C@H](CCCNC(=N)N)NC(=O)[C@@H]1CCCN1C(=O)[C@@H](N)[C@@H](C)O)C(N)=O` (H-TPRERRRKKAV-NH2): the inhibitory constant (Ki) is over 100 nM.

For `C[C@H](NC(=O)[C@H](CCCCN)NC(=O)[C@H](CCCCN)NC(=O)[C@H](CCCNC(=N)N)NC(=O)[C@H](CCCNC(=N)N)NC(=O)[C@H](CCCNC(=N)N)NC(=O)[C@H](CCC(=O)O)NC(=O)[C@H](CCCNC(=N)N)NC(=O)[C@@H]1CCCN1C(=O)[C@@H](N)[C@@H](C)O)C(=O)N(C)CC(N)=O` (H-TPRERRRKKA[Sar]-NH2), the Ki was over 100 nM.
